Laboratory results as given in ChEMBL document CHEMBL1159041, “A study of the effects of substituents on the selectivity of the binding of N-arylaminomethylene malonate inhibitors to DHODH” (Bioorg Med Chem Lett, 2010).

How the values were obtained:
[1] = target: Dihydroorotate dehydrogenase (quinone), mitochondrial (Homo sapiens) (UniProt Q02127); test: Inhibition of human DHODH at 50 uM
[2] = target: T1, Dihydroorotate dehydrogenase (Plasmodium falciparum) (UniProt Q54A96); test: Inhibition of Plasmodium falciparum DHODH at 50 uM
T1 sequence (whole entry): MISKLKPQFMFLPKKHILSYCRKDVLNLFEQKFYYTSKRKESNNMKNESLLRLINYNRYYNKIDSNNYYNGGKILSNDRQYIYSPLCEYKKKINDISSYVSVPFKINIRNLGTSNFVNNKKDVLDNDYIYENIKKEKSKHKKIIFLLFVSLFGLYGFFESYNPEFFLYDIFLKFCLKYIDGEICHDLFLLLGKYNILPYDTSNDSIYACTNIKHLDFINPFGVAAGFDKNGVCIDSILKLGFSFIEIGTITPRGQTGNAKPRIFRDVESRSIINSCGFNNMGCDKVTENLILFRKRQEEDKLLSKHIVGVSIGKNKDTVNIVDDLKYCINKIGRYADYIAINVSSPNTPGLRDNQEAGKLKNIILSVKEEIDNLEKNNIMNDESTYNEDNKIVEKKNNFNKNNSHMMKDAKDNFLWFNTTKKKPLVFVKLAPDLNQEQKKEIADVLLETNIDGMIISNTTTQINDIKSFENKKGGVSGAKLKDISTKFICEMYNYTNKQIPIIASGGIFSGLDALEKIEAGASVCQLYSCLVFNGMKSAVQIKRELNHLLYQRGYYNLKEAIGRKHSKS

Sequence of Dihydroorotate dehydrogenase (quinone), mitochondrial (Homo sapiens) (Q02127 whole entry): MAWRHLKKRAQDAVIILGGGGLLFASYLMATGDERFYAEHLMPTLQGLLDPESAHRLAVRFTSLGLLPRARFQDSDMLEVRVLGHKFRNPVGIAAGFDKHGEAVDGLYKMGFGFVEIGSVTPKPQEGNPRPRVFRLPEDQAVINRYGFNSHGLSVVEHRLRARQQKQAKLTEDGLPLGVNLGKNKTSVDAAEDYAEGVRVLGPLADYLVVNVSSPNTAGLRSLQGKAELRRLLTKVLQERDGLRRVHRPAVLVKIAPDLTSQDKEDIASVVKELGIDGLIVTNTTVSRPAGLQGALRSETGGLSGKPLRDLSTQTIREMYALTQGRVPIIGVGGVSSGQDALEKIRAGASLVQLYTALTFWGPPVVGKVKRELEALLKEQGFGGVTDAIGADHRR

| SMILES | inhibition [1] [%] | inhibition [2] [%] |
| --- | --- | --- |
| CCOC(=O)C(=CNc1ccc(C(=O)OCC)cc1)C(=O)OCC | 4 | 15 |
| CCOC(=O)C(=CNc1ccc(C(=O)O)cc1)C(=O)OCC | 37 | 43 |
| CCOC(=O)c1ccc(NC=C2C(=O)OC(C)(C)OC2=O)cc1 | 3 | 0 |
| CCOC(=O)c1ccc(NC=C2C(=O)OC(C)(C)OC2=O)cc1Cl | 0 | 12 |
| CCOC(=O)C(=CNc1cccc(C(=O)OCC)c1)C(=O)OCC | 5 | 0 |
| CC1(C)OC(=O)C(=CNc2ccc(C(=O)O)cc2)C(=O)O1 | 32 | 28 |
| CCOC(=O)/C(C#N)=C\Nc1ccc(Cl)c(C(=O)O)c1 | 45 | 44 |
| CC1(C)OC(=O)C(=CNc2ccc(Cl)c(C(=O)O)c2)C(=O)O1 | 21 | 50 |
| CCOC(=O)/C(C#N)=C\Nc1cccc(C(=O)O)c1 | 23 | 0 |
| CCOC(=O)/C(C#N)=C\Nc1cccc(C(=O)OCC)c1 | 2 | 23 |
| CCOC(=O)/C(C#N)=C\Nc1ccc(Cl)c(C(=O)OCC)c1 | 14 | 24 |
| CCOC(=O)C(=CNc1ccc(Cl)c(C(=O)OCC)c1)C(=O)OCC | 16 | 39 |
| CCOC(=O)/C(C#N)=C\Nc1ccc(C(=O)O)c(Cl)c1 | 39 | 33 |

Further lines, results first:

| inhibition [1] [%] | inhibition [2] [%] | SMILES |
| --- | --- | --- |
| 8 | 60 | CCOC(=O)C(=CNc1ccc(C(=O)OCC)c(Cl)c1)C(=O)OCC |
| 5 | 0 | CCOC(=O)c1cc(NC=C2C(=O)OC(C)(C)OC2=O)ccc1Cl |
| 27 | 25 | CC1(C)OC(=O)C(=CNc2cccc(C(=O)O)c2)C(=O)O1 |
| 29 | 0 | CCOC(=O)/C(C#N)=C\Nc1ccc(C(=O)O)cc1 |
| 2 | 2 | CCOC(=O)/C(C#N)=C\Nc1ccc(C(=O)OCC)cc1 |
| 1 | 0 | CCOC(=O)c1cccc(NC=C2C(=O)OC(C)(C)OC2=O)c1 |
| 33 | 54 | CCOC(=O)C(=CNc1cccc(C(=O)O)c1)C(=O)OCC |
| 21 | 41 | CC1(C)OC(=O)C(=CNc2ccc(C(=O)O)c(Cl)c2)C(=O)O1 |
| 39 | 37 | CCOC(=O)C(=CNc1ccc(Cl)c(C(=O)O)c1)C(=O)OCC |
| 12 | 66 | CCOC(=O)/C(C#N)=C\Nc1ccc(C(=O)OCC)c(Cl)c1 |
